Measured values: patent US9079899B2, “Anti-staphylococcal celecoxib derivatives” (THE OHIO STATE UNIVERSITY, priority 2010, dated 2015)
Values after ≈ are worked out from the molar mass of the structure shown. Read-outs that look alike come from different tables or passages of the source.

Tests used:
[1] = test system: S. aureus (ATCC 29213); test: MIC, broth microdilution; assay type: cell-based; settings: Staphylococcus aureus, ATCC29213, 24 h, CAMHB, 24 h, 37° C.; read-out: MIC S. aureus (ATCC 29213)
[2] = test system: MRSA ATCC 33592; test: Time-kill assay; assay type: cell-based, methicillin-resistant Staphylococcus aureus; settings: for reduction in CFU: after 24-h exposure to 8 times the MIC, CAMHB
Procedure: Numbers of viable bacteria in the broth after each exposure period were enumerated by CFU assay, and the results expressed as CFU/ml. Points indicate means, and bars indicate SD (n=3). The dashed line represents 99.9% cell killing. Ctl, control.
Otherwise, it is considered bacteriostatic. Pankey, G. A.; Sabath, L. D. Clin. Infect. Dis., 38, 864-870 (2004). To category these novel agents, represented by compounds 9, 36, and 46, in this regard, their time-killing kinetics were assessed in MRSA ATCC 33592 over a 24-h treatment period. Overnight-grown bacteria were inoculated in cation-adjusted Muller Hinton broth (CAMHB) at a concentration of 5×10^5 CFU/ml followed by exposure to individual compounds at 2- to 8-fold their respective MIC values. […] Accordingly, compounds 36 and 46 were classified as bactericidal. As the killing was time-dependent, the antibacterial effect of these agents was not caused by the disruption of membrane integrity.
Time-kill assay. To analyze the kinetics of bacterial cell killing, MRSA ATCC 33592 cells at a density of 5×10^5 CFU/ml were treated with test agents at 2-, 4-, and 8-fold MICs in triplicate in 24-well plates. Bacterial survival in medium containing DMSO at a concentration equal to that used for drug-treated bacteria served as control. At different times after the start of drug exposure, a 100 μl aliquot of the bacterial suspension was taken from each well and serially diluted with PBS. The diluted samples were spread onto LB agar plates followed by incubation at 37° C. for 16 h. The bacterial colonies on each plate were enumerated, and the number of viable bacteria in each well was expressed as CFU per milliliter.

[3] = test system: S. epidermidis (ATCC 35984); test: MIC, broth microdilution; assay type: cell-based; settings: Staphylococcus epidermidis, ATCC35984, 24 h, CAMHB, 24 h, 37° C.; read-out: MIC S. epidermidis (ATCC 35984)
[4] = test system: MRSA (SCCmec VT); test: MIC, broth microdilution; assay type: cell-based, methicillin-resistant Staphylococcus aureus
[5] = test system: HT-29 human colon adenocarcinoma cells; test: Antiproliferative assay (MTT); assay type: cell-based; settings: for IC50: Homo sapiens, HT-29, 24-h exposure, 10% FBS-supplemented RPMI 1640, MTT
Procedure: As celecoxib has been reported to be cytotoxic to cancer cells, the growth inhibitory activities of celecoxib and selected derivatives were assessed in. HT-29 human colon adenocarcinoma cells after 24-h exposure in 10% FBS-supplemented RPMI 1640 medium.
Antiproliferative assay. The cytotoxicity of individual test agents in HT-29 human colon adenocarcinoma cells was evaluated by using the 3-(4,5-dimethylthiazol-2-yl)-2,5-diphenyltetrazolium (MTT) assay. Briefly, HT-29 cells were seeded into 96-well plates at 1×10^4 cells/well (with a minimum of 6 wells per test condition) in RPMI 1640 medium supplemented with 10% FBS and 10 μg/ml of gentamicin. After overnight incubation at 37° C. under 5% CO2, the medium from each well was removed and replenished with fresh aliquots of the same medium containing various concentrations of test agents dissolved in DMSO (final concentration, 0.1%). Control cells were treated with DMSO alone at a concentration equal to that in drug-treated cells. After 24 h of drug exposure, the medium was removed and replaced by 100 μl of 0.5 mg/ml MTT in 10% FBS-containing medium, and the cells were incubated in the CO2 incubator at 37° C. for 2 h. Subsequently, medium was removed from each well, and the reduced MTT dye was dissolved with 100 μl of DMSO per well. Absorbance at 570 nm was measured with a plate reader. The 50% inhibitory concentration (IC50) of each drug was determined from dose-response curves by using CalcuSyn software (Biosoft, Cambridge, United Kingdom).

[6] = test system: S. lugdunesis (NTUH isolate); test: MIC, broth microdilution; assay type: cell-based; settings: read-out: MIC S. lugdunesis (NTUH isolate)
[7] = test system: MRSA (ATCC 33592); test: MIC, broth microdilution; assay type: cell-based, methicillin-resistant Staphylococcus aureus; settings: Staphylococcus aureus; read-out: MIC MRSA (ATCC 33592)
[8] = test system: three strains of MRSA; test: MIC, text statements on the three strains of MRSA together; assay type: cell-based, methicillin-resistant Staphylococcus aureus; settings: Staphylococcus aureus, read-out: MIC against MRSA
Procedure: Antibacterial assays. The MIC of each agent was determined following the guidelines for the broth microdilution method recommended by the Clinical and Laboratory Standards Institute. Wikler, M. A. Performance Standards for Antimicrobial Susceptibility Testing; Eighteenth Informational Supplement Clinical and Laboratory Standards Institute: 2008. Briefly, bacteria grown overnight on Luria Bertani (LB) agar plates were suspended in phosphate-buffered saline (PBS) to an O.D. of 1.0 at 600 nm, which was equivalent to 2×10^9 CFU/ml, and then diluted in CAMHB to a final concentration of 5×10^5 CFU/ml. […] The MIC of each agent was defined as the lowest concentration at which no growth of bacteria was observed.

[9] = test system: S. hominis (ATCC 27844); test: MIC, broth microdilution; assay type: cell-based; settings: Staphylococcus hominis, ATCC27844
[10] = test system: S. saprophyticus (ATCC 15305); test: MIC, broth microdilution; assay type: cell-based; settings: Staphylococcus saprophyticus, ATCC15305
[11] = test system: S. haemolyticus (ATCC 29970); test: MIC, broth microdilution; assay type: cell-based; settings: Staphylococcus haemolyticus, ATCC29970
[12] = test system: S. epidermidis (ATCC 12228); test: MIC, broth microdilution; assay type: cell-based; settings: Staphylococcus epidermidis, ATCC12228
[13] = test system: MRSA (ATCC 49476); test: MIC, broth microdilution; assay type: cell-based, methicillin-resistant Staphylococcus aureus; settings: Staphylococcus aureus

| Structure (SMILES) | MIC [1] | reduction in CFU [2] | MIC [3] | MIC ([4]; Table XIII, S. aureus (SSCmecVT)) | IC50 [5] | Selectivity ratio ([5]; IC50 (HT-29) / MIC against S. aureus) | MIC [6] | MIC [7] | dose-dependent effect on cell killing ([2]; range of 2×-8×MIC) | MIC [8] | MIC [9] | MIC [10] | MIC [11] | MIC ([4]; Staphylococcus aureus, MRSA, read-out: MIC MRSA (SCCmec VT)) | MIC [12] | MIC [13] |
| --- | --- | --- | --- | --- | --- | --- | --- | --- | --- | --- | --- | --- | --- | --- | --- | --- |
| NS(=O)(=O)Nc1ccc(-n2nc(C(F)(F)F)cc2-c2ccc3c(ccc4ccccc43)c2)cc1 [Compound 36, N-[4-(5-Phenanthren-2-yl-3-trifluoromethyl-pyrazol-1-yl)-phenyl]-aminosulfonamide] | ≤ 2 µg/mL | 99.91% | ≤ 2 µg/mL | 1 µg/mL (≈ 2.07 µM) | 12 µg/mL (≈ 24.9 µM) | 12 | 2 µg/mL (≈ 4.15 µM) | – | – | – | – | – | – | – | – | – |
| NC(=O)c1ccc(-n2nc(C(F)(F)F)cc2-c2c3ccccc3cc3ccccc23)cc1 [Compound 9, 4-(5-Anthracen-9-yl-3-trifluoromethyl-pyrazol-1-yl)-benzamide] | ≤ 2 µg/mL | 99.14% | ≤ 2 µg/mL | – | 12 µg/mL (≈ 27.8 µM) | – | – | 2 µg/mL (≈ 4.64 µM) | did not show a dose-dependent effect | 0.5 to 2 µg/mL (≈ 1.16 to 4.64 µM) | – | – | – | – | – | – |
| NS(=O)(=O)Nc1ccc(-n2nc(C(F)(F)F)cc2-c2ccc3cc4ccccc4cc3c2)cc1 [Compound 47, N-[4-(5-Anthracen-2-yl-3-trifluoromethyl-pyrazol-1-yl)-phenyl]-aminosulfonamide] | – | – | – | – | 11 µg/mL (≈ 22.8 µM) | – | – | 2 µg/mL (≈ 4.15 µM) | – | – | 2 µg/mL (≈ 4.15 µM) | 8 µg/mL (≈ 16.6 µM) | 16 µg/mL (≈ 33.2 µM) | 2 µg/mL (≈ 4.15 µM) | 2 µg/mL (≈ 4.15 µM) | 2 µg/mL (≈ 4.15 µM) |
